Measured values taken from patent publication US9049864B2, “Pyridazinone herbicidal compounds” (Syngenta Limited, priority 2012, dated 2015).

Legend:
Experiment in all cases: Post-emergence herbicidal glasshouse test, percentage damage to the plant
Type in all cases: in vivo
Settings in all cases: post-emergence, 1000 g/ha, evaluated after 13 days
[1] = system: Echinochloa crus-galli (ECHCG)
Procedure, shortened: (§1)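 Activity appears as a score from 1 (0-19% damage) to 5 (80-100%), assessed 13 days after a post-emergence spray of 8-day-old plants. Comparative runs used 250, 500 and 1000 g/ha; the standard rate was 1000 g/ha, formulated in acetone/water (50:50) with 0.5% Tween 20.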

[2] = system: Amaranthus retoflexus (AMARE)
Procedure, shortened: as §1

[3] = system: Alopecurus myosuroides (ALOMY)
Procedure, shortened: as §1

[4] = system: Ipomoea hederacea (IPOHE)
Procedure, shortened: as §1

Setaria faberi (SETFA) = system: Setaria faberi (SETFA)
Procedure, shortened: as §1

Solanum nigrum (SOLNI) = system: Solanum nigrum (SOLNI)
Procedure, shortened: as §1

Row | SMILES | POST Application ECHCG, percentage damage (five point scale) [1] | POST Application AMARE, percentage damage (five point scale) [2] | POST Application ALOMY, percentage damage (five point scale) [3] | POST Application IPOHE, percentage damage (five point scale) [4] | POST Application SETFA, percentage damage (five point scale) (Setaria faberi (SETFA)) | POST Application SOLNI, percentage damage (five point scale) (Solanum nigrum (SOLNI))
1 | CN1N=C(COCC(F)(F)F)C(=O)C(n2c(Cl)c(Cl)c3ccccc32)C1=O (stereo not drawn) [Compound 2.012] | 1 (1=0-19%) | 1 (1=0-19%) | 1 (1=0-19%) | 4 (4=60-79%) | 1 (1=0-19%) | 4 (4=60-79%)
2 | CC1=NN(C)C(=O)C(n2c(Br)c(Br)c3ccccc32)C1=O (stereo not drawn) [Compound 1.024] | 2 (2=20-39%) | 5 (5=80-100%) | 1 (1=0-19%) | 5 (5=80-100%) | 2 (2=20-39%) | 5 (5=80-100%)
3 | C=C(C)C1=NN(C)C(=O)C(n2c(Cl)c(Cl)c3ccccc32)C1=O (stereo not drawn) [Compound 2.016] | 1 (1=0-19%) | 4 (4=60-79%) | 1 (1=0-19%) | 2 (2=20-39%) | 1 (1=0-19%) | 4 (4=60-79%)
4 | Cc1cn(C2C(=O)C=NN(C)C2=O)c2ccccc12 (stereo not drawn) [Compound 1.007] | 1 (1=0-19%) | 2 (2=20-39%) | 1 (1=0-19%) | 1 (1=0-19%) | 1 (1=0-19%) | 5 (5=80-100%)
5 | CC(C)C1=NN(C)C(=O)C(n2c(Cl)c(Cl)c3ccccc32)C1=O (stereo not drawn) [Compound 2.013] | 1 (1=0-19%) | 3 (3=40-59%) | 1 (1=0-19%) | 2 (2=20-39%) | 1 (1=0-19%) | 4 (4=60-79%)
6 | CC1=NN(C)C(=O)C(n2c(Cl)c(Br)c3ccccc32)C1=O (stereo not drawn) [Compound 1.021] | 2 (2=20-39%) | 5 (5=80-100%) | 2 (2=20-39%) | 5 (5=80-100%) | 1 (1=0-19%) | 5 (5=80-100%)
7 | CN1N=C([S+](C)[O-])C(=O)C(n2c(Cl)c(Cl)c3ccccc32)C1=O (stereo not drawn) [Compound 2.005] | 1 (1=0-19%) | 2 (2=20-39%) | 1 (1=0-19%) | 5 (5=80-100%) | 1 (1=0-19%) | 5 (5=80-100%)
8 | CC(C)CC1=NN(C)C(=O)C(n2c(Cl)c(Cl)c3ccccc32)C1=O (stereo not drawn) [Compound 2.009] | 1 (1=0-19%) | 1 (1=0-19%) | 1 (1=0-19%) | 2 (2=20-39%) | 1 (1=0-19%) | 4 (4=60-79%)
9 | CC1=NN(C)C(=O)C(n2c(Br)c(Br)c3cc(Br)ccc32)C1=O (stereo not drawn) [Compound 1.022] | 2 (2=20-39%) | 3 (3=40-59%) | 1 (1=0-19%) | 5 (5=80-100%) | 1 (1=0-19%) | 5 (5=80-100%)
10 | CN1N=CC(=O)C(n2c(Cl)c(Cl)c3ccccc32)C1=O (stereo not drawn) [Compound 1.013] | 1 (1=0-19%) | 5 (5=80-100%) | 1 (1=0-19%) | 5 (5=80-100%) | 2 (2=20-39%) | 5 (5=80-100%)
11 | CCCOC1=NN(C)C(=O)C(n2c(Cl)c(Cl)c3ccccc32)C1=O (stereo not drawn) [Compound 2.018] | 1 (1=0-19%) | 3 (3=40-59%) | 1 (1=0-19%) | 4 (4=60-79%) | 1 (1=0-19%) | 4 (4=60-79%)
12 | CC1=NN(C)C(=O)C(n2cc(Br)c3ccccc32)C1=O (stereo not drawn) [Compound 1.025] | 1 (1=0-19%) | 4 (4=60-79%) | 1 (1=0-19%) | 3 (3=40-59%) | 1 (1=0-19%) | 5 (5=80-100%)
13 | CC1=NN(C)C(=O)C(n2c(C)c(Cl)c3ccccc32)C1=O (stereo not drawn) [Compound 4.027] | 5 (5=80-100%) | 5 (5=80-100%) | 3 (3=40-59%) | 5 (5=80-100%) | 4 (4=60-79%) | 5 (5=80-100%)
14 | CN1N=CC(=O)C(n2ccc3c(Br)cccc32)C1=O (stereo not drawn) [Compound 1.005] | 1 (1=0-19%) | 2 (2=20-39%) | 1 (1=0-19%) | 2 (2=20-39%) | 3 (3=40-59%) | 5 (5=80-100%)
15 | CN1N=C(C2CC2)C(=O)C(n2c(Cl)c(Cl)c3ccccc32)C1=O (stereo not drawn) [Compound 2.026] | 1 (1=0-19%) | 4 (4=60-79%) | 1 (1=0-19%) | 5 (5=80-100%) | 2 (2=20-39%) | 5 (5=80-100%)
16 | CN1N=C(COCC2CCCCC2)C(=O)C(n2c(Cl)c(Cl)c3ccccc32)C1=O (stereo not drawn) [Compound 2.011] | 1 (1=0-19%) | 2 (2=20-39%) | 1 (1=0-19%) | 5 (5=80-100%) | 1 (1=0-19%) | 4 (4=60-79%)
17 | CC(C)COC1=NN(C)C(=O)C(n2c(Cl)c(Cl)c3ccccc32)C1=O (stereo not drawn) [Compound 2.019] | 1 (1=0-19%) | 4 (4=60-79%) | 1 (1=0-19%) | 2 (2=20-39%) | 1 (1=0-19%) | 4 (4=60-79%)
18 | Cc1nn(C)c(=O)c(-n2c(Cl)c(Cl)c3ccccc32)c1OC(=O)C(C)(C)C [Compound 3.008] | 3 (3=40-59%) | 5 (5=80-100%) | 2 (2=20-39%) | 5 (5=80-100%) | 1 (1=0-19%) | 5 (5=80-100%)
